Laboratory results taken from publication PMC7044277 (Nature Communications, 2020).
“And” between values parts separate entries of the source, which are not always exact repeats. Equal values may be shown once.

Key:
Assay type in all cases: cell-based
320 non-olfactory GPCRs [1] = target: 320 non-olfactory GPCRs (Homo sapiens, UniProt O43193); details: receptor MLNR; replicate values, Fig_4g
320 non-olfactory GPCRs [2] = target: T1, 320 non-olfactory GPCRs (Homo sapiens, UniProt P25929); details: receptor NPY1R; replicate values, Fig_4g
T1 construct: expressed in transfected cells; host or cells: HTLA cells
T1 sequence (P25929 whole entry): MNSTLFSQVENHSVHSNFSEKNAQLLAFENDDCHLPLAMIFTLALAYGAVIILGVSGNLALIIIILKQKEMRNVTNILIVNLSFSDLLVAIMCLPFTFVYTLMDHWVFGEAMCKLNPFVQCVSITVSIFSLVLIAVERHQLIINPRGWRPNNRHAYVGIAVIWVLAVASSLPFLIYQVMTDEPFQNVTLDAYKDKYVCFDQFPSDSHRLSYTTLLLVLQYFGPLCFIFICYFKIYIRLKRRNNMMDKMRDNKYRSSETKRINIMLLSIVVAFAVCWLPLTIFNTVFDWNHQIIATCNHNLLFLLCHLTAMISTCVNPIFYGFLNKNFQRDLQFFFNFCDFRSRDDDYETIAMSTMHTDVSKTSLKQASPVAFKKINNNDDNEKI

320 non-olfactory GPCRs [3] = target: T2, 320 non-olfactory GPCRs (Homo sapiens, UniProt Q6U736); details: receptor OPN5; replicate values, Fig_4g
T2 construct: expressed in transfected cells; host or cells: HTLA cells
T2 sequence (Q6U736 whole entry): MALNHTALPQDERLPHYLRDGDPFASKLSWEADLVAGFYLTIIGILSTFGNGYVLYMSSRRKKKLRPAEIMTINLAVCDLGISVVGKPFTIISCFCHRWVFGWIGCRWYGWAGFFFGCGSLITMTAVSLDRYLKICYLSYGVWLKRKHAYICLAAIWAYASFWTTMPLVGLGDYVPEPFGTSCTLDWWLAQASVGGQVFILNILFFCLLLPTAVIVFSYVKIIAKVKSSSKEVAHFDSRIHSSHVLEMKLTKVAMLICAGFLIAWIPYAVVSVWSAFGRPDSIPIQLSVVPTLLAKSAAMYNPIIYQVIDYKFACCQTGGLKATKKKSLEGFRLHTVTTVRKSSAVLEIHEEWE

320 non-olfactory GPCRs [4] = target: T3, 320 non-olfactory GPCRs (Homo sapiens, UniProt P32248)
T3 construct: expressed in transfected cells; host or cells: HTLA cells
T3 sequence (P32248 25-378): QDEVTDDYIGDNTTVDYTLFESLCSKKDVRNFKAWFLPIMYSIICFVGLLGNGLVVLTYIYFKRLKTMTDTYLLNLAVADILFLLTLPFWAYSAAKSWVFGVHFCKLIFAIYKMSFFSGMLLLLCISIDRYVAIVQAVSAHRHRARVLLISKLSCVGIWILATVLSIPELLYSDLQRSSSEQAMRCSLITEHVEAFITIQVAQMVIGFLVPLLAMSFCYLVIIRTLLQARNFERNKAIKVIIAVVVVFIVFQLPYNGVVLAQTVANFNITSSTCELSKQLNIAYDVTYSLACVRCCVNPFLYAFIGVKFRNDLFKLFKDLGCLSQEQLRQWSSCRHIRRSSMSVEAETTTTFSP
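Throughout, for Fold of Basal: compound tested at 1 µM final concentration.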
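Throughout, for GPCRome agonism screen response: fold over basal response of each receptor without drug.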

Sequence of 320 non-olfactory GPCRs (Homo sapiens, UniProt O43193) (O43193 whole entry): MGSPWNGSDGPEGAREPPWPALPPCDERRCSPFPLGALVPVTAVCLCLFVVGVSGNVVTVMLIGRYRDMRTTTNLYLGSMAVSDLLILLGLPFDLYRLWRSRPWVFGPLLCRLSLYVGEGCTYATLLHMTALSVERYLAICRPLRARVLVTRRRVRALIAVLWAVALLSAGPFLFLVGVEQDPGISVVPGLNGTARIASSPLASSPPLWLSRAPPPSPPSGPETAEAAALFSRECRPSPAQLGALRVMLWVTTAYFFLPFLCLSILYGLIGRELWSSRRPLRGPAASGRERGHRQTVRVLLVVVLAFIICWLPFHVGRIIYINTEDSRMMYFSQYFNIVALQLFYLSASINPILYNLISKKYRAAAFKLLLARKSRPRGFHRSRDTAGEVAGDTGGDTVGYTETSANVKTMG

## CCOc1cccc2cc(C(C)NCC3(O)CCCCC3)oc12 (stereo not shown) [O4LE6]
320 non-olfactory GPCRs [1]
  GPCRome agonism screen response: 1.48 and 1.279 and 0.7077 and 1.039
320 non-olfactory GPCRs [2]
  GPCRome agonism screen response: 0.9657 and 1.278 and 0.9923 and 0.817
320 non-olfactory GPCRs [3]
  GPCRome agonism screen response: 0.05197 and 0.3541 and 1.246 and 1.464
320 non-olfactory GPCRs [4]
  Fold of Basal: 1.25 and 0.8767 and 0.9045 and 1.727
